In a melting point compilation (Tetko et al.; mined from patent text by program, amines drawn as free bases though some values may be those of a salt):

SMILES | melting point [°C]
CC(C)(C)CNC(=O)Oc1ccccc1 | 77 to 78
N#CCc1c(Br)csc1Br | 75.5 to 77
COC(=O)c1ccc(OC2=C3N=C4CCCCC4=C3C(Cc3cccc(F)c3)C=C2)o1 (stereo unspecified) | 86 to 88
Cc1c(SCCCSCCn2c([N+](=O)[O-])cnc2C)ccnc1CNc1cnc2ccccc2c1 | 133 to 135
CCC(=CC(CNC(=O)c1cccnc1Cl)=NO)C(C)[N+](=O)[O-] (stereo unspecified) | 131 to 136
c1ccc(CNc2ccncc2)cc1 | 108 to 110
Cc1cc(F)ccc1-c1ccc2c(c1)NC(=O)CC(c1cccc(-n3ccnc3)c1)=N2 | 170 to 172
Cc1ccc2oc(N(C=O)[C@@H](Cc3ccccn3)c3ncc(-c4ccc(N5CCOCC5)cc4)n3C)cc2c1 | 125 to 127
CCCCCCCCCCCCCCCCCCOc1cccc(C(=O)OC)c1O | 57 to 60
CC(C)CC(NS(=O)(=O)c1ccc(Cl)cc1)C(=O)Nc1ccc(CC(=O)O)cc1 (racemic) | 208 to 209
O=C(N1CCC(O)(c2ccccc2)CC1)C(F)(F)F | 123 to 125
CNC(=O)Nc1ccc2[nH]cc(CCN)c2c1 | 188 to 190
COC(=O)c1cc(I)c[nH]1 | 77 to 78
COc1ccc2c(c1)N=C(N1CCN(C)CC1)c1cccc3c1N2CC3 | 152 to 155
CCCCCCCC(=O)CCC(C)=O | 40 to 41
CC(C)(C)C(=O)Nc1ccc(F)cc1 | 124 to 125
COC1CC(C)(OCc2ccccc2)C2COC1O2 (stereo unspecified) | 45 to 46
O=C1C=C(NC(=O)C(=O)c2cn(Cc3cccc(C(F)(F)F)c3)c3cc([N+](=O)[O-])ccc23)CO1 | 279 to 281
CC(C)(C)OC(=O)N1CCN(C[C@H](O)Cn2c3ccccc3c3cc(Br)ccc32)CC1 | 75 to 85
O=C(O)C1=Cc2cc(Cl)c(I)cc2OC1C(F)(F)F (stereo unspecified) | 225 to 226
C[C@H](NC(=O)Nc1cccc(CC(=O)O)c1)C(=O)N1[C@@H](c2ccccc2F)SC[C@H]1C(=O)OC(C)(C)C | 110
CSc1nc(-c2cc(C(C)(C)C)c(O)c(C(C)(C)C)c2)c(-c2ccccc2)[nH]1 | 129 to 131
CCC(CC)CC(=N)NC(=S)Nc1ccc(Cl)cc1 | 116 to 118
O=C(Nc1ccc(C(=O)N2Cc3cccn3Cc3ccccc32)cc1)c1cc(Cl)ccc1Cl | 218 to 220
Fc1ccc(Nc2nc(N/N=C/c3cccc4ccccc34)nc(N3CCOCC3)n2)cc1 | 220
CC(C)(C)OC(=O)C=C(c1ccc(C#N)cc1)n1ccnc1 | 151 to 153
CC(C)(C)OC(=O)N[C@H]1C=C[C@@H](C(=O)O)C1 | 153 to 155
Cn1cc(-c2cccc(N3Cc4cc(C(C)(C)C)ccc4C3=O)c2CO)cc(Nc2ccc(N3CCNCC3=O)cn2)c1=O | 218 to 220
C/C=C/C/C=C/CCCCCCCC(=O)Nc1nc(CC(=O)O)cs1 | 101 to 102
O=C(C#Cc1ccc(-c2ccc(Cl)cc2)cc1)Nc1ccc(CNCC2CCCCC2)cc1 | 205 to 210

Further lines, results first:

melting point [°C] | SMILES
208 to 209 | CCNc1nc(C)c(-c2ccnc(Nc3ccc(N4CCN(C(C)=O)CC4)cc3)n2)s1
69 to 73 | CCc1nc2ccc(N=C=S)cc2s1
158 to 160 | CCc1ccc(COc2cccc3c2CN(C2CCC(=O)NC2=O)C3=O)cc1 (stereo unspecified)
75 to 79 | O=C1c2ccccc2OCC1SC(=O)C(F)(F)F (stereo unspecified)
136 to 138 | COC(=O)c1cn(-c2cc(C(=O)OC)c([N+](=O)[O-])cc2C(F)(F)F)cn1
298 to 299 | COc1ccc(-c2c(Cl)c(CN3C(=O)c4ccccc4C3=O)nc3sc4c(c23)CCS(=O)(=O)C4)cc1
228 | Cc1c(Nc2c(C#N)cnc3sc(C4=CCN(S(C)(=O)=O)CC4)cc23)ccc2[nH]ccc12
91 to 92 | CCOC(=O)C(CC(=O)c1cccc(C(F)(F)F)c1)(NC(C)=O)C(=O)OCC
170 to 171 | CCOC(=O)c1cn(-c2cnc3ccccc3c2)cn1
164 | O=C(O)c1cccc([N+](=O)[O-])c1NCc1ccccc1Cl
57 to 59 | CCc1ccc(N)c(C(=O)c2ccccc2)c1
171 to 174 | Cc1onc(-c2ccccc2)c1-c1ccc(S(N)(=O)=O)cc1
231 to 233 | COC(=O)Nc1nc2cc(S(=O)CC3(C)CC3(Cl)Cl)ccc2[nH]1 (stereo unspecified)
190 to 191 | BrCc1nc2cc3ccccc3cc2nc1CBr
225 to 226 | COC(=O)C1=C(O)c2c(c3cc(OC)ccc3n2C)S(=O)(=O)N1
160 to 161 | N#Cc1cccc(-c2cnn(-c3ccccn3)c2)c1
216 to 218 | CC(=O)NC[C@H]1CN(c2ccc(N3CCC(n4nnc(N5CCN(C(C)=O)CC5)n4)CC3)c(F)c2)C(=O)O1
145 to 154 | CCCN(CCCc1c[nH]c2c(Cl)cccc12)C1COc2c(F)ccc(C(N)=O)c2C1 (stereo unspecified)
85 to 86 | C=CCn1c(C)c(C)c2cnnc(OCc3cccc(F)c3)c21
58 to 60 | CCOC(=O)C(Cc1ccc(OC)cc1)(C(=O)OCC)c1cc2cc(Br)ccc2s1
231 to 235 | O=C(O)c1ccc(NCC=C(c2ccc(Cl)cc2)c2ccc(Cl)cc2)cc1

melting point [°C] | SMILES
132 to 134 | OCCCC1=NN(c2nc3ccccc3s2)C(O)(c2ccc(Cl)cc2)C1 (stereo unspecified)
175 to 176 | COc1cc(COc2ccc3nc(NC(=O)OCC(O)CO)cn3n2)cc(OC)c1OC (stereo unspecified)
234 to 236 | O=C(O)Cc1cccc2c1NC(=O)C2
220 | Oc1ccc(-c2nnc(Nc3ccc(Br)c(Cl)c3)s2)cc1O
138 to 140 | COc1cc(OCCCN2CCN(c3nn(C(=O)c4ccccc4)c4cc(F)ccc34)CC2)ccc1C(C)=O
133 to 135 | Cc1cc(Sc2ccc3nc(CCl)n(C)c3n2)cc(C)c1[N+](=O)[O-]
258 to 260 | Nc1nc(Nc2ccc(S(N)(=O)=O)cc2)sc1C(=O)c1c(F)cccc1F
268 to 270 | c1ccc(CCn2cc3c(ncn4nc(-c5ccco5)nc34)n2)cc1
278 to 280 | CCc1cc2c(=O)n3cc(C(N)=O)ccc3nc2s1
48 | CN(Cc1cccc(-c2ccc(CC3SC(=O)NC3=O)cc2)c1)C(=O)CCCCC(=O)c1ccccc1 (stereo unspecified)
223 to 225 | CCC(c1oc2ccccc2c(=O)c1-c1ccccc1)n1cnc2c(N)ncnc21 (stereo unspecified)
191 | Cn1nc(C(F)(F)F)c(C(=O)Nc2ccccc2)c1-c1ccccc1O
125 to 130 | CCOC(=O)Cc1ccc(CNC(=O)C=Cc2ccc3[nH]cc(CC#N)c3c2)cc1
101 to 103 | O=C(O)Cc1cccc(C(=O)c2ccccc2)c1
155 to 162 | COc1ccc(C(=O)c2[nH]c(=O)[nH]c2COC(C)=O)cc1
90 to 92 | CC(C)(C)c1nc2c(Cl)cc(F)c(-n3c(=O)cc(C(F)(F)F)n(N)c3=O)c2o1
150 to 151 | CCCCc1nc2c(N)nc3ccccc3c2n1CCCCCCCCNC(=O)c1ccccc1
145 to 150 | CCOC(=O)c1ccc(Nc2ccc([N+](=O)[O-])cc2N)cc1
195 to 197 | N#Cc1cc(Cn2cncn2)ccc1-c1ccc(O)c(Cl)c1
186 to 189 | CCOc1cc2c(c(Cl)c1O)Sc1ccccc1N2
